# Results published in patent publication US4845294A, “Diaminotetrafluoroethoxybenzenes” (Wella Aktiengesellschaft, priority 1984, dated 1989).
# Experiments:
# Test in all cases: Ames mutagenicity test (back mutation)
# Format in all cases: cell-based
# Design in all cases: key: -: no back mutation; (+): slight back mutuation; +: increasing back mutation; ++: increasing back mutation
# [1] = tested on: Salmonella thyphimurium strain TA 97
# Excerpt: (§1) Salmonella thyphimurium strains
# (§2) without (-) and with (+) S9 - Mix
# [2] = tested on: Salmonella thyphimurium strain TA 98
# Excerpt: as §1, §2
# [3] = tested on: Salmonella thyphimurium strain TA 100
# Excerpt: as §1, §2
Compound,"Ames test result, TA 97 ([1]; with (+) S9-Mix)","Ames test result, TA 97 ([1]; without (-) S9-Mix)","Ames test result, TA 98 ([2]; with (+) S9-Mix)","Ames test result, TA 98 ([2]; without (-) S9-Mix)","Ames test result, TA 100 ([3]; with (+) S9-Mix)","Ames test result, TA 100 ([3]; without (-) S9-Mix)"
"CCOc1ccc(N)cc1N [2,4-diaminophenetol]",+,-,++,-,-,-
"2,4-diaminotrifluoroethoxybenzene",-,-,++,-,(+),-
"Cc1cc(OC(F)(F)C(F)F)c(N)cc1N [2,4-diamino-5-tetrafluoroethoxy-toluene, 2,4-diamino-5-tetrafluoroethoxytoluene]",-,-,-,-,-,-
"COc1ccc(N)cc1N [2,4-diaminoanisol]",+,-,++,-,(+),-
"Nc1ccc(OC(F)(F)C(F)F)c(N)c1 [2,4-diaminotetrafluoroethoxybenzene]",(+),-,+,-,-,-
